US9796674B2, “Benzyl urea derivatives for activating TGF-beta signaling” (THE BOARD OF TRUSTEES OF THE LELAND STANFORD JUNIOR …, priority 2013, dated 2017)
Like-named read-outs stand apart in the source and are kept apart here.

Columns and labels:
[1] = system: CYPs 1A2, 2B6, 2C9, 2C19, 2D6, 3A4; test: CYP inhibition in human liver microsomes; format: in vitro ADME; details: 1 and 10 μM, significant = >30% reduction in activity
From the text: CYP Inhibition: SRI-011381 was screened for CYP inhibition, an indicator of potential drug interactions. […] Thus, this compound is unlikely to cause clinically relevant interactions due to effects on co-administered drugs metabolized by these hepatic enzymes.
Drug Interactions (GYP inhibition): GYPs are major enzymes involved in drug metabolism and this assay is used to screen the inhibitory potential of test compounds on in vitro CYP activity, and help predict potential drug interactions due to inhibition of metabolism of one drug by another. This assay was performed by incubating test compounds with human liver microsomes and model CYP substrates (i.e., phenacetin (CYP1A2), bupropion (CYP2B6), diclofenac (CYP2C9), mephenytoin (CYP2C19), bufuralol (CYP2D6), testosterone (CYP3A4), and midazolam (CYP3A4)). Control incubations containing compounds known to inhibit specific CYPs were also included and incubated in the same manner as the test compounds (i.e., furafylline (CYP1A2), thioTEPA (CYP2B6), sulfaphenazole (CYP2C9), tranylcypromine (CYP2C19), quinidine (CYP2D6), and ketoconazole (CYP3A4)). The data is expressed as ‘% of control’, where the controls consist of the model substrates incubated with microsomes (no test compounds or inhibitors).

FvB wildtype mice = format: in vivo
Description: Excitotoxic injury model: Mice are injured with kainic acid and treated with different test compounds at two concentrations each to determine if they can reduce neurodegeneration and/or microglial activation. Wildtype mice on the FVB/N genetic background (8-weeks-old) are typically injured with kainic acid (Tocris, Ellisville, Mo.) dissolved in PBS and injected subcutaneously (s.q., 20 mg/kg). Seizure activity is scored from 0 to 5, with 0 corresponding to no behavioral changes and 5 corresponding to constant rearing and falling. Only kainate-injected mice reaching at least stage 3 are used for the studies. On day 5 following injury, mice are anesthetized, transcardially perfused with 0.9% saline, and brains harvested and dissected. One hemi-brain may be fixed for 24 hours in 4% paraformaldehyde and cryoprotected in 30% sucrose. Serial coronal sections (40 μm) can be cut with a freezing microtome (Leica, Allendale, N.J.) and stored in cryoprotective medium. One set of sections, representing different levels of the hippocampus, is used for the various stains. The other hemi-brain is dissected into hippocampus, cortex, thalamus, brain stem, and cerebellum. In this manner, the ability of test compounds to reduce neurodegeneration in kainate-injected mice can be assayed.
SRI-011381 is neuroprotective in a model of acute neurodegeneration: To study the potential neuroprotective effect of SRI-011381 in vivo, FvB wildtype mice were pre-treated with compound or vehicle for 3 days before excitotoxic injury was induced with kainic acid (10 mg/kg, SQ). Mice continued to receive daily injections of compound until they were sacrificed at day 5 after kainic acid injury. Brains were removed, fixed with paraformaldehyde, sectioned into […] sections using a cryomicrotome and stained with cresyl violet, or immunohistochemical methods. Sections for analysis of synaptophysin, MAP2, and NeuN were subjected to blinded confocal quantitative analysis of neurodegeneration.
To study the potential neuroprotective effect of SRI-011381, FvB wild-type mice were pre-treated with compound or vehicle for 3 days before excitotoxic injury was induced with kainic acid (10 mg/kg). Mice continued to receive daily injections of compound until they were sacrificed at day 5 after kainic acid injury. Kainic acid treatment alone caused a roughly 50% lethality in this experiment (lethality greatly varies in this model and is very difficult to control, but survivors from experiments with greater than 25% lethality typically show significant neurodegeneration in the hippocampus).
Brains were removed, fixed with paraformaldehyde, sectioned into […] sections using a cryomicrotome and stained with cresyl violet, or immunohistochemical methods. Sections were analyzed for synaptophysin, MAP2, and NeuN by confocal quantitative analysis of neurodegeneration. All observers were completely blinded to the treatment conditions of the mice.

Sprague Dawley rats = test: 7-Day oral gavage dose range finding and toxicokinetic study in rats; format: in vivo
Description: 7-Day oral gavage dose range finding and toxicokinetic study of SRI-011381 in male and female Sprague Dawley rats: The objective of this study was to determine maximum tolerated dose (MTD), characterize the potential toxicity, and estimate the dose dependence of exposure to SRI-011381 in adult male and female Sprague Dawley rats following daily oral gavage (po) dose administration for 7 consecutive days. The doses studied were 2, 10, and 50 mg/kg, formulated in 15% Solutol/85% sterile water and administered in the volume of 10 ml/kg.
Species and Strain: Sprague Dawley rat; Route of Administration: Oral (po); Frequency: Daily administration for 7 consecutive days; Dosing Volume: 10 ml/kg; Dose volumes will be calculated based on the animal's most recent body weight; Duration of In-life Phase: 8 days; Endpoints: clinical observations, mortality, body weights, clinical chemistry, hematology, gross pathology, organ weights, histopathology, toxicokinetics.

[2] = Cytotoxicity in primary rat hepatocytes; format: cell-based; details: rat
Description: In Vitro Cytotoxicity: The cytotoxicity of SRI-011381 was determined in primary rat hepatocytes and in VERO cells.
Rat hepatocytes were isolated by collagenase perfusion and allowed to form a monolayer overnight. The test compounds were added to the cells in 5 concentrations up to 250 μM. Cells were incubated with the test article for 20 h and then toxicity determined by the MTT cytotoxicity screen. Toxicity was evaluated against the vehicle control (DMSO) and a positive control, amitriptylin, was included with each experiment.

[3] = one third of maximum tolerated dose
[4] = po 2, 10, 50 mg/kg daily for 7 days

In the case of O=C(NC1CCCCC1)N(Cc1ccccc1)CC1CCNCC1 [SRI-011381, 1-Benzyl-3-cyclohexyl-1-(piperidin-4-ylmethyl)urea], the CYP inhibition [1] is reported as “did not inhibit any CYP activity significantly”, the “lethality after kainic acid” value (FvB wildtype mice; 10 mg/kg daily) is reported as “significant reduction in lethality” and the calbindin loss reduced (FvB wildtype mice; kainic acid 10 mg/kg, day 5) is reported as 30%. For the same molecule, the “neuronal damage reversed or prevented, all neuronal markers” value (FvB wildtype mice; kainic acid 10 mg/kg, day 5) was “at least 30%”, the “reduction of CD68 expression” value (FvB wildtype mice; kainic acid 10 mg/kg, day 5) was “more than 20%” and the “lethality after kainic acid” value (FvB wildtype mice; mouse, in vivo, 60 mg/kg) was “increase in lethality”. The “pathology reduced: Cresyl violet” value (FvB wildtype mice; [3]) was 54.0%, the “pathology reduced: D68” value (FvB wildtype mice; [3]) was 22.5% and the “pathology reduced: MAP-2” value (FvB wildtype mice; [3]) was 37.4%. The “pathology reduced: NeuN” value (FvB wildtype mice; [3]) was 36.9%, the “pathology reduced: Synaptophysin” value (FvB wildtype mice; [3]) was 67.5% and the “neurodegeneration (percentage of rescue)” value (FvB wildtype mice; systemic administration) was “reduces neurodegeneration by 6 markers”. For the same molecule, the LDH (Sprague Dawley rats; high dose group (50 mg/kg)) was “significantly lower in male rats of the high dose group”, the “gender related differences in exposure” value (Sprague Dawley rats; male and female rats) was “nor were gender related differences observed” and the “exposure after 7 doses compared to the first dose” value (Sprague Dawley rats; po 2, 10, 50 mg/kg) was “no apparent change in exposure”. For the same molecule, the “alkaline phosphatase (ALP) levels” value (Sprague Dawley rats; [4]) was “significantly elevated in all treatment groups in the female rats, though not in males”, the body weight (Sprague Dawley rats; [4]) was “no statistically significant differences in body weight” and the clinical observations (Sprague Dawley rats; [4]) was “appeared normal”. For the same molecule, the hematology parameters (Sprague Dawley rats; [4]) was “no significant changes in any hematology parameters”, the “exposure based on plasma collected 1 h after dose” value (Sprague Dawley rats; po 2, 10, 50 mg/kg, Day 1 and 7) was “increased in a dose dependent fashion” and the CC50 at 20 h [2] was > 100 µM.
